# Laboratory results reported in PubChem BioAssay AID192 (DTP/NCI, 2004).
# Several values for one entry are separate records, joined by “and”; a condition that tells them apart may be missing. Identical values can stand only once. Inconclusive results and toxic doses are left out.
# System: BDF1 mice, B16 melanoma ip, median survival T/C
# Assay: NCI In Vivo Anticancer Drug Screen. Data for tumor model B16 Melanoma (intraperitoneal) in B6D2F1 (BDF1) mice
# Conditions: endpoint: median survival time, higher = longer survival
# Summary of the method: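 Values are ratios of treated (T) to vehicle-control (C) measurements of survival or tumor size in tumor-bearing mice.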
# [1] = dose: 12.5 mg/kg/injection, schedule: Q01DX009 (ip), vehicle: saline
# [2] = dose: 25.0 mg/kg/injection, schedule: Q01DX009 (ip), vehicle: saline
# [3] = dose: 50.0 mg/kg/injection, schedule: Q01DX009 (ip), vehicle: saline
# [4] = dose: 100.0 mg/kg/injection, schedule: Q01DX009 (ip), vehicle: saline
# [5] = dose: 200.0 mg/kg/injection, schedule: Q01DX009 (ip), vehicle: saline with Tween-80
# [6] = dose: 400.0 mg/kg/injection, schedule: Q01DX009 (ip), vehicle: saline with Tween-80
# [7] = dose: 50.0 mg/kg/injection, schedule: Q01DX009 (ip), vehicle: saline with Tween-80
# [8] = dose: 100.0 mg/kg/injection, schedule: Q01DX009 (ip), vehicle: saline with Tween-80
# [9] = dose: 100.0 mg/kg/injection, schedule: Q01DX009 (ip), vehicle: Klucel (hydroxypropylcellulose) (HPC)
# [10] = dose: 200.0 mg/kg/injection, schedule: Q01DX009 (ip), vehicle: Klucel (hydroxypropylcellulose) (HPC)
# [11] = dose: 50.0 mg/kg/injection, schedule: Q01DX009 (ip), vehicle: Klucel (hydroxypropylcellulose) (HPC)
# [12] = dose: 400.0 mg/kg/injection, schedule: Q01DX009 (ip), vehicle: Klucel (hydroxypropylcellulose) (HPC)
smiles,measurement,setting,value
CC(=O)OCCC/C(=C\c1ccc2ccccc2c1)[N+](=O)[O-],T/C,"dose: 6.25 mg/kg/injection, schedule: Q01DX009 (ip), vehicle: saline",100 % of control
same,T/C,[1],95 % of control
same,T/C,[2],91 % of control
same,T/C,[3],95 % of control
same,T/C,[4],93 % of control
CC(=O)Oc1ccc[nH]c1=O,T/C,"dose: 75.0 mg/kg/injection, schedule: Q01DX009 (ip), vehicle: saline",91 % of control and 94 % of control
same,T/C,"dose: 150.0 mg/kg/injection, schedule: Q01DX009 (ip), vehicle: saline",91 % of control
same,T/C,[5],105 % of control
same,T/C,"dose: 200.0 mg/kg/injection, schedule: Q01DX009 (ip), vehicle: saline",90 % of control and 95 % of control
same,T/C,"dose: 300.0 mg/kg/injection, schedule: Q01DX009 (ip), vehicle: saline",104 % of control and 105 % of control
same,T/C,[6],105 % of control
same,T/C,"dose: 600.0 mg/kg/injection, schedule: Q01DX009 (ip), vehicle: saline with Tween-80",106 % of control
CCOCCCN,T/C,[3],122 % of control
same,T/C,[4],122 % of control
NC(=O)c1ccc(-c2c3ccccc3cc3c2ccc2ccccc23)cc1,T/C,[7],101 % of control
same,T/C,[8],96 % of control
CCCCNC(=O)Nc1cc(C)ccc1C,T/C,[9],100 % of control
same,T/C,[10],100 % of control
CC1(C)SC(C(NC(=O)COc2ccccc2)C(=O)O)NC1C(=O)O (stereo not given),T/C,[11],107 % of control
same,T/C,[9],110 % of control
same,T/C,[10],105 % of control
NC(Cc1cc([N+](=O)[O-])ccc1CN(CCCl)CCCl)C(=O)O (stereo not given),T/C,"dose: 1.0 mg/kg/injection, schedule: Q01DX009 (ip), vehicle: Klucel (hydroxypropylcellulose) (HPC)",178 % of control
same,T/C,"dose: 1.88 mg/kg/injection, schedule: Q04DX003 (ip), vehicle: Klucel (hydroxypropylcellulose) (HPC)",158 % of control
same,T/C,"dose: 2.0 mg/kg/injection, schedule: Q01DX009 (ip), vehicle: Klucel (hydroxypropylcellulose) (HPC)",193 % of control
same,T/C,"dose: 3.12 mg/kg/injection, schedule: Q01DX001 (ip), vehicle: Klucel (hydroxypropylcellulose) (HPC)",164 % of control
same,T/C,"dose: 3.78 mg/kg/injection, schedule: Q04DX003 (ip), vehicle: Klucel (hydroxypropylcellulose) (HPC)",173 % of control
same,T/C,"dose: 4.0 mg/kg/injection, schedule: Q01DX009 (ip), vehicle: Klucel (hydroxypropylcellulose) (HPC)",240 % of control
same,T/C,"dose: 6.25 mg/kg/injection, schedule: Q01DX001 (ip), vehicle: Klucel (hydroxypropylcellulose) (HPC)",170 % of control
same,T/C,"dose: 7.5 mg/kg/injection, schedule: Q04DX003 (ip), vehicle: Klucel (hydroxypropylcellulose) (HPC)",185 % of control
same,T/C,"dose: 8.0 mg/kg/injection, schedule: Q01DX009 (ip), vehicle: Klucel (hydroxypropylcellulose) (HPC)",261 % of control
same,T/C,"dose: 12.5 mg/kg/injection, schedule: Q01DX001 (ip), vehicle: Klucel (hydroxypropylcellulose) (HPC)",186 % of control
same,T/C,"dose: 15.0 mg/kg/injection, schedule: Q04DX003 (ip), vehicle: Klucel (hydroxypropylcellulose) (HPC)",164 % of control
NCCC(=O)OC1CCCc2c(O)c3c(c(O)c21)C(=O)c1ccccc1C3=O (stereo not given),T/C,[1],96 % of control
same,T/C,[2],100 % of control
same,T/C,[3],93 % of control
CSCCCCCCSC,T/C,[11],93 % of control
same,T/C,[9],105 % of control
same,T/C,[10],106 % of control
COc1cc2cc(c1Cl)N(C)C(=O)CC(OC(=O)CC(C)C)C1(C)OC1C(C)C1CC(O)(NC(=O)O1)C(OC)/C=C/C=C(C)C2 (stereo not given),T/C,"dose: 3.1 micrograms/kg/injection, schedule: Q01DX009 (ip), vehicle: saline + alcohol",122 % of control
same,T/C,"dose: 6.25 micrograms/kg/injection, schedule: Q01DX009 (ip), vehicle: saline + alcohol",150 % of control and 160 % of control
same,T/C,"dose: 12.5 micrograms/kg/injection, schedule: Q01DX009 (ip), vehicle: saline + alcohol",157 % of control and 169 % of control and 173 % of control
same,T/C,"dose: 15.0 micrograms/kg/injection, schedule: Q01DX009 (ip), vehicle: saline + alcohol",170 % of control
same,T/C,"dose: 25.0 micrograms/kg/injection, schedule: Q01DX009 (ip), vehicle: saline + alcohol",164 % of control and 168 % of control and 183 % of control
same,T/C,"dose: 30.0 micrograms/kg/injection, schedule: Q01DX009 (ip), vehicle: saline + alcohol",179 % of control
same,T/C,"dose: 50.0 micrograms/kg/injection, schedule: Q01DX009 (ip), vehicle: saline + alcohol",163 % of control
same,T/C,"dose: 60.0 micrograms/kg/injection, schedule: Q01DX009 (ip), vehicle: saline + alcohol",191 % of control
Nc1ccccc1SC1CC(=O)N(c2cccc3ccccc23)C1=O (stereo not given),T/C,"dose: 1.56 mg/kg/injection, schedule: Q01DX009 (ip), vehicle: Klucel (hydroxypropylcellulose) (HPC)",98 % of control
same,T/C,"dose: 3.12 mg/kg/injection, schedule: Q01DX009 (ip), vehicle: Klucel (hydroxypropylcellulose) (HPC)",96 % of control
same,T/C,"dose: 6.25 mg/kg/injection, schedule: Q01DX009 (ip), vehicle: Klucel (hydroxypropylcellulose) (HPC)",88 % of control and 94 % of control
same,T/C,"dose: 12.5 mg/kg/injection, schedule: Q01DX009 (ip), vehicle: Klucel (hydroxypropylcellulose) (HPC)",86 % of control
same,T/C,[9],94 % of control and 96 % of control
same,T/C,"dose: 100.0 mg/kg/injection, schedule: Q04DX003 (ip), vehicle: Klucel (hydroxypropylcellulose) (HPC)",100 % of control
same,T/C,[10],92 % of control
same,T/C,"dose: 200.0 mg/kg/injection, schedule: Q04DX003 (ip), vehicle: Klucel (hydroxypropylcellulose) (HPC)",100 % of control
same,T/C,[12],92 % of control
same,T/C,"dose: 400.0 mg/kg/injection, schedule: Q04DX003 (ip), vehicle: Klucel (hydroxypropylcellulose) (HPC)",93 % of control
CC(=O)OCC1OC(n2ccc(N)nc2=O)C(OC(C)=O)C1OC(C)=O (stereo not given),T/C,[1],105 % of control
same,T/C,[2],105 % of control
same,T/C,[3],105 % of control
same,T/C,[4],109 % of control
O=C(O)CSCCc1ccccc1,T/C,[9],96 % of control
same,T/C,[10],93 % of control
same,T/C,[12],100 % of control
CCC(=O)c1ccc2c(c1)N(CCCN1CCN(CCO)CC1)c1ccccc1S2,T/C,"dose: 0.25 mg/kg/injection, schedule: Q01DX009 (ip), vehicle: saline",100 % of control
same,T/C,"dose: 0.5 mg/kg/injection, schedule: Q01DX009 (ip), vehicle: saline",95 % of control
same,T/C,"dose: 1.0 mg/kg/injection, schedule: Q01DX009 (ip), vehicle: saline",92 % of control
same,T/C,"dose: 2.0 mg/kg/injection, schedule: Q01DX009 (ip), vehicle: saline",89 % of control
same,T/C,"dose: 4.0 mg/kg/injection, schedule: Q01DX009 (ip), vehicle: saline",105 % of control
COc1ccc(CC(CO)C(CO)Cc2ccc(OC)c(OC)c2)cc1OC (stereo not given),T/C,[9],93 % of control
same,T/C,[10],100 % of control
same,T/C,[12],103 % of control
CCCCCCCCSC1=C(Cl)C(=O)C(OC)=C(OC)C1=O,T/C,"dose: 3.13 mg/kg/injection, schedule: Q01DX009 (ip), vehicle: saline with Tween-80",88 % of control
OCC1OC(n2cnc3cncnc32)C(O)C1O (stereo not given),T/C,[1],115 % of control
Clc1ccc2c(c1)C([P+](c1ccccc1)(c1ccccc1)c1ccccc1)c1cc(Cl)cc(Cl)c1-2 (stereo not given),T/C,[8],89 % of control
same,T/C,[5],95 % of control
same,T/C,[6],89 % of control
CCCCCCCCCCCC(=O)CC,T/C,"dose: 100.0 mg/kg/injection, schedule: Q01DX009 (ip), vehicle: other",96 % of control
same,T/C,"dose: 200.0 mg/kg/injection, schedule: Q01DX009 (ip), vehicle: other",87 % of control
CCN(CC)CCSC(=O)C(O)(c1ccccc1)C1CCCC1 (stereo not given),T/C,[2],124 % of control
COc1cc(Cl)ccc1C,T/C,"dose: 37.5 mg/kg/injection, schedule: Q01DX001 (ip), vehicle: Klucel (hydroxypropylcellulose) (HPC)",103 % of control
same,T/C,"dose: 75.0 mg/kg/injection, schedule: Q01DX001 (ip), vehicle: Klucel (hydroxypropylcellulose) (HPC)",182 % of control
same,T/C,"dose: 150.0 mg/kg/injection, schedule: Q01DX001 (ip), vehicle: Klucel (hydroxypropylcellulose) (HPC)",116 % of control
same,T/C,"dose: 300.0 mg/kg/injection, schedule: Q01DX001 (ip), vehicle: Klucel (hydroxypropylcellulose) (HPC)",100 % of control
COC(=O)C(CSCc1ccccc1)NC(=O)OCc1ccccc1 (stereo not given),T/C,[11],87 % of control
CC(=N)/C(C(=O)NC1CCCCC1)=C(/C)O,T/C,"dose: 100.0 mg/kg/injection, schedule: Q04DX003 (ip), vehicle: saline",100 % of control
same,T/C,"dose: 200.0 mg/kg/injection, schedule: Q04DX003 (ip), vehicle: saline",97 % of control
same,T/C,"dose: 400.0 mg/kg/injection, schedule: Q04DX003 (ip), vehicle: saline",97 % of control
O=[N+]([O-])c1ccc(Sc2ccncn2)c([N+](=O)[O-])c1,T/C,"dose: 12.5 mg/kg/injection, schedule: Q01DX009 (ip), vehicle: saline with Tween-80",100 % of control and 109 % of control
same,T/C,"dose: 25.0 mg/kg/injection, schedule: Q01DX009 (ip), vehicle: saline with Tween-80",94 % of control and 101 % of control
same,T/C,[7],95 % of control and 106 % of control
same,T/C,[8],108 % of control
Cc1nonc1-c1ccc2c(c1)OCO2,T/C,"dose: 25.0 mg/kg/injection, schedule: Q01DX009 (ip), vehicle: Klucel (hydroxypropylcellulose) (HPC)",98 % of control
same,T/C,[11],93 % of control
same,T/C,[9],91 % of control
same,T/C,[10],99 % of control
